Molecular target: T1, AR (Homo sapiens, UniProt P10275)
T1 construct: endogenous in cells; host or cells: VCaP cells
T1 sequence (P10275 1-920): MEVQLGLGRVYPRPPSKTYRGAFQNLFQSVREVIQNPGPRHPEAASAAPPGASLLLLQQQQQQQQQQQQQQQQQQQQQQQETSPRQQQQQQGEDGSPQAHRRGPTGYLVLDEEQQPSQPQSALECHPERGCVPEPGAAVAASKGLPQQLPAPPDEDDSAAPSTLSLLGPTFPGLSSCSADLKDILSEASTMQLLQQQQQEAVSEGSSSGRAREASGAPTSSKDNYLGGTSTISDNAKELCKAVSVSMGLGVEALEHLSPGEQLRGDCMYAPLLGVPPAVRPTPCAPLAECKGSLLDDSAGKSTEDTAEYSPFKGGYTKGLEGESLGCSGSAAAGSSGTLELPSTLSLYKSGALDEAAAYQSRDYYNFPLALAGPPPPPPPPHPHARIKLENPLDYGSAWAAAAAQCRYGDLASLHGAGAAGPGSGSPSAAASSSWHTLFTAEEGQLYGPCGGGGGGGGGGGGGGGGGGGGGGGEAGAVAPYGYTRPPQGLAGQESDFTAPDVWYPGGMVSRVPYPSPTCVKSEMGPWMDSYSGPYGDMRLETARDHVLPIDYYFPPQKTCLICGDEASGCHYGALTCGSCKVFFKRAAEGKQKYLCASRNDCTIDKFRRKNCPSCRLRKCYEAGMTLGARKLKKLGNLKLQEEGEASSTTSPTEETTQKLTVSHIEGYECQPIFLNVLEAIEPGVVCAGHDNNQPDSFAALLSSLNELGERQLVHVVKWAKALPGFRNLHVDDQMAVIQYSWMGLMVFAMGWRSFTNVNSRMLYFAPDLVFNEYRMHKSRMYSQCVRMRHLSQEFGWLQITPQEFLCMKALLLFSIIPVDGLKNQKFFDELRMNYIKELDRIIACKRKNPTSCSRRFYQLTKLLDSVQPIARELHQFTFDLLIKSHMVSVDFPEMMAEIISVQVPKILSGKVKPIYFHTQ
Assay: VCAP AR Degradation Assay
Type: cell-based
Settings: for Y (AR degradation efficiency, % of DMSO control): class symbols *; for DC50: class symbols A-C, read-out: DC50
Method in brief: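 Compounds were plated as 10-point 1:3 series reaching 5 μM final, then VCaP cells were seeded onto them and incubated 24 h at 37 °C. Cells were lysed cold, and total AR was measured by sandwich ELISA relative to 0.1% DMSO wells.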

Compound | Y (AR degradation efficiency, % of DMSO control) | DC50 [µM]
CC(C)c1cc(N2C(=S)N(c3cnc(C#N)c(C(F)(F)F)c3)C(=O)C23CCC3)ccc1OCCN1C[C@@H](C)N(CC(=O)Nc2cc(Cl)cc(NC3CCC(=O)NC3=O)c2)[C@@H](C)C1 (stereo partly drawn) [Example 195, N-(3-chloro-5-(2,6-dioxopiperidin-3-ylamino)phenyl)-2-((2S,6R)-4-(2-(4-(7-(6-cyano-5-(trifluoromethyl)pyridin-3-yl)-8-oxo-6-thioxo-5,7-diazaspiro[3.4]octan-5-yl)-2-isopropylphenoxy)ethyl)-2,6-dimethylpiperazin-1-yl)acetamide] | * (0<Y<=25%) | < 0.1
CC(C)c1cc(N2C(=S)N(c3ccc(C#N)c(Cl)c3)C(=O)C2(C)C)ccc1OCCN1C[C@@H](C)N(CC(=O)Nc2cccc(NC3CCC(=O)NC3=O)c2)C[C@H]1C (stereo partly drawn) [Example 207, 2-((2R,5R)-4-(2-(4-(3-(3-chloro-4-cyanophenyl)-5,5-dimethyl-4-oxo-2-thioxoimidazolidin-1-yl)-2-isopropylphenoxy)ethyl)-2,5-dimethylpiperazin-1-yl)-N-(3-(2,6-dioxopiperidin-3-ylamino)phenyl)acetamide] | ** (25%<Y<=35%) | 0.1 to 0.5
C[C@@H]1CN(CCOc2ccc(N3C(=S)N(c4cnc(C#N)c(C(F)(F)F)c4)C(=O)C34CCC4)cc2C2CC2)C[C@H](C)N1CC(=O)Nc1cc(Cl)cc(NC2CCC(=O)NC2=O)c1 (stereo partly drawn) [Example 215, N-(3-chloro-5-(2,6-dioxopiperidin-3-ylamino)phenyl)-2-((2S,6R)-4-(2-(4-(7-(6-cyano-5-(trifluoromethyl)pyridin-3-yl)-8-oxo-6-thioxo-5,7-diazaspiro[3.4]octan-5-yl)-2-cyclopropylphenoxy)ethyl)-2,6-dimethylpiperazin-1-yl)acetamide] | * (0<Y<=25%) | < 0.1
C[C@@H]1CN(CCOc2ccc(N3C(=S)N(c4ccc(C#N)c(C(F)(F)F)c4)C(=O)C3(C)C)cc2F)C[C@H](C)N1CC(=O)Nc1cccc(NC2CCC(=O)NC2=O)c1 (stereo partly drawn) [Example 278, 2-((2S,6R)-4-(2-(4-(3-(4-cyano-3-(trifluoromethyl)phenyl)-5,5-dimethyl-4-oxo-2-thioxoimidazolidin-1-yl)-2-fluorophenoxy)ethyl)-2,6-dimethylpiperazin-1-yl)-N-(3-(2,6-dioxopiperidin-3-ylamino)phenyl)acetamide] | * (0<Y<=25%) | < 0.1
C[C@@H]1CN(CCCc2ccc(N3C(=S)N(c4ccc(C#N)c(C(F)(F)F)c4)C(=O)C3(C)C)cc2F)C[C@H](C)N1CC(=O)Nc1cccc(NC2CCC(=O)NC2=O)c1 (stereo partly drawn) [Example 287, 2-((2R,6S)-4-(3-(4-(3-(4-cyano-3-(trifluoromethyl)phenyl)-5,5-dimethyl-4-oxo-2-thioxoimidazolidin-1-yl)-2-fluorophenyl)propyl)-2,6-dimethylpiperazin-1-yl)-N-(3-(2,6-dioxopiperidin-3-ylamino)phenyl)acetamide] | * (0<Y<=25%) | < 0.1
C[C@@H]1CN(CCOc2ccc(N3C(=S)N(c4cnc(C#N)c(C(F)(F)F)c4)C(=O)C3(C)C)cc2C(C)(F)F)CCN1CC(=O)Nc1cc(Cl)cc(NC2CCC(=O)NC2=O)c1 (stereo partly drawn) [Example 149, N-(3-chloro-5-(2,6-dioxopiperidin-3-ylamino)phenyl)-2-((R)-4-(2-(4-(3-(6-cyano-5-(trifluoromethyl)pyridin-3-yl)-5,5-dimethyl-4-oxo-2-thioxoimidazolidin-1-yl)-2-(1,1-difluoroethyl)phenoxy)ethyl)-2-methylpiperazin-1-yl)acetamide] | * (0<Y<=25%) | < 0.1
CCc1cc(N2C(=S)N(c3cnc(C#N)c(C(F)(F)F)c3)C(=O)C2(C)C)ccc1OCCN1CCN(CC(=O)Nc2cc(Cl)cc(NC3CCC(=O)NC3=O)c2)[C@H](C)C1 (stereo partly drawn) [Example 74, N-(3-chloro-5-(2,6-dioxopiperidin-3-ylamino)phenyl)-2-((R)-4-(2-(4-(3-(6-cyano-5-(trifluoromethyl)pyridin-3-yl)-5,5-dimethyl-4-oxo-2-thioxoimidazolidin-1-yl)-2-ethylphenoxy)ethyl)-2-methylpiperazin-1-yl)acetamide] | * (0<Y<=25%) | < 0.1
CCc1cc(N2C(=S)N(c3ccc(C#N)c(C(F)(F)F)c3)C(=O)C2(C)C)ccc1OC[C@@H](C)N1C[C@@H](C)N(CC(=O)Nc2cccc(NC3CCC(=O)NC3=O)c2)[C@@H](C)C1 (single isomer, unassigned) [Example 237] | ** (25%<Y<=35%) | 0.1 to 0.5
CCc1cc(N2C(=S)N(c3cnc(C#N)c(C(F)(F)F)c3)C(=O)C2(C)C)ccc1OCCN1CCN(CC(=O)Nc2cc(F)cc(NC3CCC(=O)NC3=O)c2)CC1 (stereo not drawn) [Example 63, 2-(4-(2-(4-(3-(6-cyano-5-(trifluoromethyl)pyridin-3-yl)-5,5-dimethyl-4-oxo-2-thioxoimidazolidin-1-yl)-2-ethylphenoxy)ethyl)piperazin-1-yl)-N-(3-(2,6-dioxopiperidin-3-ylamino)-5-fluorophenyl)acetamide] | * (0<Y<=25%) | < 0.1
C[C@@H]1CN(CCOc2ccc(N3C(=S)N(c4ccc(C#N)c(Cl)c4)C(=O)C3(C)C)cc2C2CC2)C[C@H](C)N1CC(=O)Nc1cc(F)cc(NC2CCC(=O)NC2=O)c1 (stereo partly drawn) [Example 226, 2-((2S,6R)-4-(2-(4-(3-(3-chloro-4-cyanophenyl)-5,5-dimethyl-4-oxo-2-thioxoimidazolidin-1-yl)-2-cyclopropylphenoxy)ethyl)-2,6-dimethylpiperazin-1-yl)-N-(3-(2,6-dioxopiperidin-3-ylamino)-5-fluorophenyl)acetamide] | * (0<Y<=25%) | < 0.1
CC(C)c1cc(N2C(=S)N(c3ccc(C#N)c(C(F)(F)F)c3)C(=O)C2(C)C)ccc1OCCN1CCN(CC(=O)Nc2cc(Cl)cc(NC3CCC(=O)NC3=O)c2)CC1 (stereo not drawn) [Example 94, N-(3-chloro-5-(2,6-dioxopiperidin-3-ylamino)phenyl)-2-(4-(2-(4-(3-(4-cyano-3-(trifluoromethyl)phenyl)-5,5-dimethyl-4-oxo-2-thioxoimidazolidin-1-yl)-2-isopropylphenoxy)ethyl)piperazin-1-yl)acetamide] | ** (25%<Y<=35%) | 0.1 to 0.5
C[C@@H]1CN(CCOc2ccc(N3C(=S)N(c4ccc(C#N)c(C(F)(F)F)c4)C(=O)C3(C)C)cc2CC(F)F)CCN1CC(=O)Nc1cc(NC2CCC(=O)NC2=O)ccc1F (stereo partly drawn) [Example 156, 2-((R)-4-(2-(4-(3-(4-cyano-3-(trifluoromethyl)phenyl)-5,5-dimethyl-4-oxo-2-thioxoimidazolidin-1-yl)-2-(2,2-difluoroethyl)phenoxy)ethyl)-2-methylpiperazin-1-yl)-N-(5-(2,6-dioxopiperidin-3-ylamino)-2-fluorophenyl)acetamide] | * (0<Y<=25%) | < 0.1
CCc1cc(N2C(=S)N(c3ccc(C#N)c(C(F)(F)F)c3)C(=O)C2(C)C)ccc1OCCN1C[C@@H](C)N(CC(=O)Nc2cc(C#N)cc(NC3CCC(=O)NC3=O)c2)[C@@H](C)C1 (stereo partly drawn) [Example 186, 2-((2S,6R)-4-(2-(4-(3-(4-cyano-3-(trifluoromethyl)phenyl)-5,5-dimethyl-4-oxo-2-thioxoimidazolidin-1-yl)-2-ethylphenoxy)ethyl)-2,6-dimethylpiperazin-1-yl)-N-(3-cyano-5-(2,6-dioxopiperidin-3-ylamino)phenyl)acetamide] | * (0<Y<=25%) | < 0.1
CCc1cc(N2C(=S)N(c3ccc(C#N)c(C(F)(F)F)c3)C(=O)C2(C)C)ccc1OCCN1CCN(CC(=O)Nc2cccc(NC3CCC(=O)NC3=O)c2)[C@H](C)C1 (stereo partly drawn) [Example 45] | * (0<Y<=25%) | < 0.1
CCc1cc(N2C(=S)N(c3ccc(C#N)c(C(F)(F)F)c3)C(=O)C2(C)C)ccc1OCCN1CC2CCC(C1)N2CC(=O)Nc1cccc(NC2CCC(=O)NC2=O)c1 (stereo not drawn) [Example 177, 2-(3-(2-(4-(3-(4-cyano-3-(trifluoromethyl)phenyl)-5,5-dimethyl-4-oxo-2-thioxoimidazolidin-1-yl)-2-ethylphenoxy)ethyl)-3,8-diazabicyclo[3.2.1]octan-8-yl)-N-(3-(2,6-dioxopiperidin-3-ylamino)phenyl)acetamide] | * (0<Y<=25%) | 0.1 to 0.5

From patent US12404241B2 (Celgene Corporation, priority 2018, dated 2025)
